Structures can show the parent of a compound that is named as a salt.
Experiments:
[1] = cited from earlier work
acne = conditions: sub-antibiotic doses; cited from earlier work
[2] = tested on: neutrophil chemotaxis induced by bacterial chemotactic factors; conditions: oral, total daily dose 1000 mg; cited from earlier work
[3] = Plasma antibiotic threshold levels based on steady-state pharmacokinetics
moderate facial acne = assay: Clinical study of doxycycline hyclate 20 mg tablets twice daily in moderate acne: lesion counts; assay type: in vivo, human; conditions: 20 mg tablets twice a day
Method: Effects of Doxycycline Hyclate 20 mg (Dermastat) Tablets Administered Twice Daily for the Treatment of Moderate Acne
• Multi-center, randomized double-blind, placebo-controlled; • Sixty patients enrolled (30 doxycycline and 30 placebo); • Six month duration of the study. • Patients received medication twice daily, approximately 12 hours apart (placebo and drug are identical in appearance.) Inclusion Criteria: • Healthy post-pubescent males and females (age ≧18) with moderate facial acne: • Comedones 6 to 200; • Inflammatory lesions 10 to 75 (papules and pustules, less than or equal to 5 nodules); • Females tested negative for pregnancy and were non-lactating; • Females maintained appropriate birth control; • Patients signed an Informed Consent Form; • No Accutane treatment for 6 months prior to baseline. Exclusion Criteria: • Use of hormonal contraception 6 months prior to baseline or during study; • Use of topical acne treatments within 6 weeks of baseline or during study; • Use of systemic antibiotics within 6 weeks of baseline or during study; • Use of investigational drugs within 90 days of baseline; • Use of any acne treatments during study. […]

## CN(C)[C@@H]1C(O)=C(C(N)=O)C(=O)[C@@]2(O)C(O)=C3C(=O)c4c(O)cccc4[C@@](C)(O)[C@H]3C[C@@H]12 [tetracycline HCl]
[1]; 250 mg every six hours over a twenty-four hour period
  peak plasma concentration: approximately 3 μg/ml
[1]; 500 mg every six hours over a twenty-four hour period
  serum concentration level: 4000 to 5000 ng/mL

## CN(C)[C@@H]1C(O)=C(C(N)=O)C(=O)[C@@]2(O)C(O)=C3C(=O)c4c(O)cccc4[C@@](C)(O)[C@H]3C[C@@H]12 [tetracycline]
acne
  clinical effect on acne: no clinical effect
[2]
  neutrophil chemotaxis: inhibition
[3]
  plasma antibiotic threshold level: 0.5 µg/mL

## CN(C)c1ccc(O)c2c1C[C@H]1C[C@H]3[C@H](N(C)C)C(O)=C(C(N)=O)C(=O)[C@@]3(O)C(O)=C1C2=O [minocycline HCl]
[1]; single dose of two 100 mg tablets, adult humans, over a period of an hour
  minocycline serum levels (range): 0.74 to 4.45 µg/mL
[1]; single dose of two 100 mg tablets, adult humans
  minocycline serum level (average): 2.24 µg/mL

## CCO.C[C@H]1c2cccc(O)c2C(O)=C2C(=O)[C@]3(O)C(O)=C(C(N)=O)C(=O)[C@@H](N(C)C)[C@@H]3[C@@H](O)[C@@H]21.C[C@H]1c2cccc(O)c2C(O)=C2C(=O)[C@]3(O)C(O)=C(C(N)=O)C(=O)[C@@H](N(C)C)[C@@H]3[C@@H](O)[C@@H]21.Cl.Cl.O [doxycycline hyclate]
Moderate facial acne
  reduction in the number of comedones (in words): significant reduction

Source: US7014858B2, “Use methods of treating acne and telangiectasia” (CollaGenex Pharmaceuticals, Inc., priority 2001, dated 2006)
